From patent US20240425524A1, “SPIROTRICYCLE RIPK1 INHIBITORS AND METHODS OF USES THEREOF” (Merck Sharp & Dohme LLC, priority 2021, published 2024)

What follows are compounds tested against RIPK1 (Homo sapiens (Human), UniProt Q13546) (assay: RIPK1-ADP-Glo Enzymatic Assay). Conditions: recombinant GST-RIPK1 kinase domain (residues 1-327), 25 nM, ten-point titration, 30 minutes pre-incubation.
Type: biochemical
Summary of the method: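 GST-RIPK1 kinase domain (residues 1-327, Sf21-expressed; 25 nM final) was pre-incubated 30 min at ambient temperature with compound (10-point 1:3 series from 100000 nM, 1% DMSO) in HEPES pH 7.3 buffer with 20 mM MgCl2. The reaction was started with 900 μM ATP (addition solution) and 3 μM dephosphorylated MBP and ran 150 min. Read-out was ADP-Glo luminescence, with EC50 from a four-parameter fit.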

RIPK1, sequence (Q13546 1-327): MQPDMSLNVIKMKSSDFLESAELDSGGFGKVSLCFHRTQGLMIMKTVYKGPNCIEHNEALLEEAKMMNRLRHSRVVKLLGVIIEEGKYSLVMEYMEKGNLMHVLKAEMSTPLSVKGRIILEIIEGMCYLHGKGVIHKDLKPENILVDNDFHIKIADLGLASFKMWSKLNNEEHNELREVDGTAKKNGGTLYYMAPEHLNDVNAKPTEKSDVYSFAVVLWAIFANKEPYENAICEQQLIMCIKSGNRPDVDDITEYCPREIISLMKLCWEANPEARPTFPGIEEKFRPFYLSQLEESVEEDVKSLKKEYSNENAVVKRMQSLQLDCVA

| SMILES | EC50 [nM] |
| --- | --- |
| N#Cc1cc(N2CCC3(CC2)CN2CC[C@@H](c4cc(F)cc(F)c4)N2C3=O)ccn1 [Example 2.4, (S)-4-(7′-(3,5-difluorophenyl)-1′-oxodihydro-l′H,3′H,5′H-spiro[piperidine-4,2′-pyrazolo[1,2-a]pyrazol]-1-yl)picolinonitrile] | 49 |
| O=C1N2[C@H](c3cc(F)cc(F)c3)CCN2CC12CCN(c1nc(Cl)nc3[nH]ncc13)CC2 [Example 1.53, (S)-1-(6-chloro-1H-pyrazolo[3,4-d]pyrimidin-4-yl)-7′-(3,5-difluorophenyl)dihydro-1′H,3′H,5′H-spiro[piperidine-4,2′-pyrazolo[1,2-a]pyrazol]-1′-one] | 857 |
| O=C(c1cc(F)c(F)cc1F)N1CCC2(CC1)CN1CC[C@@H](c3cc(F)cc(F)c3)N1C2=O [Example 4.11, (S)-7′-(3,5-difluorophenyl)-1-(2,4,5-trifluorobenzoyl) dihydro-1′H,3′H,5′H-spiro[piperidine-4,2′-pyrazolo[1,2-a]pyrazol]-l′-one] | 19 |
| O=C1N2[C@H](c3cc(F)cc(F)c3)CCN2CC12CCN(c1cc(O)ncn1)CC2 [Example 1.2, (7′S)-7′-(3,5-difluorophenyl)-1-(6-hydroxypyrimidin-4-yl)dihydro-1′H,3′H,5′H-spiro[piperidine-4,2′-pyrazolo[1,2-a]pyrazol]-1′-one] | 151 |
| CSc1cnc(N2CCC3(CC2)CN2CC[C@@H](c4cc(F)cc(F)c4)N2C3=O)nc1 [Example 1.22, (S)-7′-(3,5-difluorophenyl)-1-(5-(methylthio)pyrimidin-2-yl)dihydro-1′H,3′H,5′H-spiro [piperidine-4,2′-pyrazolo[1,2-a]pyrazol]-1′-one] | 89 |
| Cc1c(F)cccc1C(=O)N1CCC2(CC1)CN1CC[C@@H](c3cc(F)cc(F)c3)N1C2=O [Example 4.8, (S)-7′-(3,5-difluorophenyl)-1-(3-fluoro-2-methylbenzoyl)dihydro-1′H,3′H,5′H-spiro[piperidine-4,2′-pyrazolo[1,2-a]pyrazol]-l′-one] | 158 |
| O=C1N2[C@H](c3cc(F)cc(F)c3)CCN2CC12CCN(c1cc(N3CCCC3)ncn1)CC2 [Example 1.69, (S)-7′-(3,5-difluorophenyl)-1-(6-(pyrrolidin-1-yl)pyrimidin-4-yl)dihydro-1′H,3′H,5′H-spiro[piperidine-4,2′-pyrazolo[1,2-a]pyrazol]-l′-one] | 296 |
| O=C1N2[C@H](c3cc(F)cc(F)c3)CCN2CC12CCN(c1cc(-c3ccccc3)ncn1)CC2 [Example 1.35, (S)-7′-(3,5-difluorophenyl)-1-(6-phenylpyrimidin-4-yl)dihydro-1′H,3′H,5′H-spiro[piperidine-4,2′-pyrazolo[1,2-a]pyrazol]-1′-one] | 15 |
| O=C(c1c(F)ccc(F)c1F)N1CCC2(CC1)CN1CC[C@@H](c3cc(F)cc(F)c3)N1C2=O [Example 4.9, (S)-7′-(3,5-difluorophenyl)-1-(2,3,6-trifluorobenzoyl) dihydro-1′H,3′H,5′H-spiro[piperidine-4,2′-pyrazolo[1,2-a]pyrazol]-l′-one] | 31 |
| N#Cc1ccc(C(=O)N2CCC3(CC2)CN2CC[C@@H](c4cc(F)cc(F)c4)N2C3=O)cc1F [Example 4.15, (S)-4-(7′-(3,5-difluorophenyl)-1′-oxodihydro-1′H,3′H,5′H-spiro[piperidine-4,2′-pyrazolo[1,2-a]pyrazole]-1-carbonyl)-2-fluorobenzonitrile] | 858 |
| N#Cc1cc(Cl)nc(N2CCC3(CC2)CN2CC[C@@H](c4cc(F)cc(F)c4)N2C3=O)c1 [Example 1.52, (S)-2-chloro-6-(7′-(3,5-difluorophenyl)-1′-oxodihydro-1′H,3′H,5′H-spiro[piperidine-4,2′-pyrazolo[1,2-a]pyrazol]-1-yl)isonicotinonitrile] | 54 |
| NC(=O)c1ccnc(N2CCC3(CC2)CN2CC[C@@H](c4cc(F)cc(F)c4)N2C3=O)n1 [Example 1.24, (S)-2-(7′-(3,5-difluorophenyl)-1′-oxodihydro-1′H,3′H,5′H-spiro[piperidine-4,2′-pyrazolo[1,2-a]pyrazol]-1-yl)pyrimidine-4-carboxamide] | 136 |
| N#Cc1cc(F)cc(C(=O)N2CCC3(CC2)CN2CC[C@@H](c4cc(F)cc(F)c4)N2C3=O)c1 [Example 4.7, (S)-3-(7′-(3,5-difluorophenyl)-1′-oxodihydro-1′H,3′H,5′H-spiro[piperidine-4,2′-pyrazolo[1,2-a]pyrazole]-1-carbonyl)-5-fluorobenzonitrile] | 211 |
| N#Cc1c(F)c(F)nc(N2CCC3(CC2)CN2CC[C@@H](c4cc(F)cc(F)c4)N2C3=O)c1F [Example 1.51, (S)-2-(7′-(3,5-difluorophenyl)-1′-oxodihydro-1′H,3′H,5′H-spiro [piperidine-4,2′-pyrazolo[1,2-a]pyrazol]-1-yl)-3,5,6-trifluoroisonicotinonitrile] | 189 |
| Cc1cc(N2CCC3(CC2)CN2CC[C@@H](c4cc(F)cc(F)c4)N2C3=O)nc(C(F)(F)F)n1 [Example 1.44, (S)-7′-(3,5-difluorophenyl)-1-(6-methyl-2-(trifluoromethyl)pyrimidin-4-yl)dihydro-1′H,3′H,5′H-spiro[piperidine-4,2′-pyrazolo[1,2-a]pyrazol]-1′-one] | 274 |
| O=C1N2[C@H](c3cc(F)cc(F)c3)CCN2CC12CCN(c1ncc(Br)cn1)CC2 [Example 1.54, (S)-1-(5-bromopyrimidin-2-yl)-7′-(3,5-difluorophenyl)dihydro-1′H,3′H,5′H-spiro[piperidine-4,2′-pyrazolo[1,2-a]pyrazol]-1′-one] | 17 |
| O=C(c1cc(F)cc(Cl)c1)N1CCC2(CC1)CN1CC[C@@H](c3cc(F)cc(F)c3)N1C2=O [Example 4.19, (S)-1-(3-chloro-5-fluorobenzoyl)-7′-(3,5-difluorophenyl) dihydro-1′H,3′H,5′H-spiro[piperidine-4,2′-pyrazolo[1,2-a]pyrazol]-l′-one] | 18 |
| O=C(c1cccnc1)N1CCC2(CC1)CN1CC[C@@H](c3cc(F)cc(F)c3)N1C2=O [Example 4.4, (S)-7′-(3,5-difluorophenyl)-1-nicotinoyldihydro-1′H,3′H,5′H-spiro[piperidine-4,2′-pyrazolo[1,2-a]pyrazol]-l′-one] | 209 |
| O=C(c1ccccc1)N1CCC2(CC1)CN1CC[C@@H](c3cc(F)cc(F)c3)N1C2=O [Example 5.1] | 13 |
| O=C1N2[C@H](c3cc(F)cc(F)c3)CCN2CC12CCN(c1cc(-n3cccn3)ncn1)CC2 [Example 1.17, (S)-1-(6-(1H-pyrazol-1-yl)pyrimidin-4-yl)-7′-(3,5-difluorophenyl)dihydro-1′H,3′H,5′H-spiro[piperidine-4,2′-pyrazolo[1,2-a]pyrazol]-1′-one] | 20 |
| O=C(c1ncccn1)N1CCC2(CC1)CN1CC[C@@H](c3cc(F)cc(F)c3)N1C2=O [Example 4.2, (S)-7′-(3,5-difluorophenyl)-1-(pyrimidine-2-carbonyl)dihydro-1′H,3′H,5′H-spiro[piperidine-4,2′-pyrazolo[1,2-a]pyrazol]-l′-one] | 434 |
| O=C1N2[C@H](c3cc(F)cc(F)c3)CCN2CC12CCN(c1ncccn1)CC2 [Example 1.55, (S)-7′-(3,5-difluorophenyl)-1-(pyrimidin-2-yl)dihydro-1′H,3′H,5′H-spiro[piperidine-4,2′-pyrazolo[1,2-a]pyrazol]-1′-one] | 804 |
| N#Cc1ccc(N2CCC3(CC2)CN2CC[C@@H](c4cc(F)cc(F)c4)N2C3=O)nc1 [Example 1.50, (S)-6-(7′-(3,5-difluorophenyl)-1′-oxodihydro-1′H,3′H,5′H-spiro[piperidine-4,2′-pyrazolo[1,2-a]pyrazol]-1-yl)nicotinonitrile] | 64 |
| O=C1N2[C@H](c3cc(F)cc(F)c3)CCN2CC12CCN(c1nc(Cl)nc3c1CCC3)CC2 [Example 1.65, (S)-1-(2-chloro-6,7-dihydro-5H-cyclopenta[d]pyrimidin-4-yl)-7′-(3,5-difluorophenyl)dihydro-1′H,3′H,5′H-spiro[piperidine-4,2′-pyrazolo[1,2-a]pyrazol]-1′-one] | 144 |
